Source: ChEMBL document CHEMBL5316331, “Modulating Cytotoxicity with Lego-like Chemistry: Upgrading Mitochondriotropic Antioxidants with Prototypical Cationic Carrier Bricks” (J Med Chem, 2023)
Calls of active or inactive are those of the source. No cut-off for these calls is given here.

Legend:
[1] = Dissociation constant, pKa of the compound by UV-vis spectrophotometric analysis; type: physicochemical
[2] = system: SH-SY5Y; experiment: Neuroprotective activity against tBHP-induced human SH-SY5Y cells assessed as increase in cell viability at 50 uM preincubated for 30 mins followed by t-BHP addition and measured after 24 hrs by SRB assay; type: functional, cell-based; details: time 24.5 hrs
[3] = system: SH-SY5Y; experiment: Neuroprotective activity against tBHP-induced human SH-SY5Y cells assessed as increase in cell viability at 10 uM preincubated for 30 mins followed by t-BHP addition and measured after 24 hrs by SRB assay; type: functional, cell-based; details: time 24.5 hrs
[4] = system: SH-SY5Y; experiment: Cytotoxicity against human SH-SY5Y cells incubated for 48 hrs; type: toxicity, cell-based
[5] = system: SH-SY5Y; experiment: Effect on cell death pathway in human SH-SY5Y cells assessed as decrease in early apoptotic cells at 10 uM incubated for 24 hrs by Annexin V-FITC/PI staining based microscopy; type: functional
[6] = system: SH-SY5Y; experiment: Antioxidant activity against human SH-SY5Y cells assessed as effect on intracellular ATP level at 50 uM incubated for 24 hrs followed by addition of oligomycin/FCCP/antimycin A /rotenone by Cell Mito stress assay based seahorse XF96 flux analyzer; type: functional
[7] = system: SH-SY5Y; experiment: Effect on cell death pathway in human SH-SY5Y cells assessed as decrease in late apoptotic cells at 10 uM incubated for 24 hrs by Annexin V-FITC/PI staining based microscopy; type: functional
[8] = Drug uptake in C57BL/6J mouse liver mitochondria at 5 uM in presence of FCCP by UPLC analysis; type: ADME
[9] = system: SH-SY5Y; experiment: Neuroprotective activity against H2O2-induced human SH-SY5Y cells assessed as increase in cell viability at 10 uM preincubated for 30 mins followed by H2O2 addition and measured after 24 hrs by SRB assay; type: functional, cell-based; details: time 24.5 hrs
[10] = system: SH-SY5Y; experiment: Effect on cell mitochondrial mass in human SH-SY5Y cells assessed as reduction on mitochondrial mass at 50 uM incubated for 24 hrs by mito-tracker green dye based flow cytometry; type: functional; design: scale not given: the % may be the effect or the level left
[11] = system: SH-SY5Y; experiment: Neuroprotective activity against H2O2-induced human SH-SY5Y cells assessed as increase in cell viability at 50 uM preincubated for 30 mins followed by H2O2 addition and measured after 24 hrs by SRB assay; type: functional, cell-based; details: time 24.5 hrs
[12] = system: SH-SY5Y; experiment: Antioxidant activity against human SH-SY5Y cells assessed as increase in maximal respiration at 10 uM incubated for 24 hrs followed by addition of oligomycin/FCCP/antimycin A /rotenone by Cell Mito stress assay based seahorse XF96 flux analyzer; type: functional
[13] = system: SH-SY5Y; experiment: Antioxidant activity against human SH-SY5Y cells assessed as increase in ATP production-linked respiration at 10 uM incubated for 24 hrs followed by addition of oligomycin/FCCP/antimycin A /rotenone by Cell Mito stress assay based seahorse XF96 flux analyzer; type: functional
[14] = system: SH-SY5Y; experiment: Antioxidant activity against human SH-SY5Y cells assessed as increase in basal respiration at 10 uM incubated for 24 hrs followed by addition of oligomycin/FCCP/antimycin A /rotenone by Cell Mito stress assay based seahorse XF96 flux analyzer; type: functional
[15] = Cytotoxicity against human HepG2 cells assessed as cell viability incubated for 24 hrs; type: toxicity, cell-based; details: read-out: Activity
[16] = system: HepG2; experiment: Cytotoxicity against human HepG2 cells assessed as increase in cell viability at 10 to 100 uM incubated for 24 hrs; type: toxicity, cell-based; details: hepg2, 24 h, dose 10-100 µM
[17] = system: SH-SY5Y; experiment: Cytotoxicity against human SH-SY5Y cells assessed as increase in cell viability at 10 to 100 uM incubated for 24 hrs; type: toxicity, cell-based; details: dose 10-100 µM
[18] = system: SH-SY5Y; experiment: Antioxidant activity against human SH-SY5Y cells assessed as increase in spare respiratory capacity at 10 uM incubated for 24 hrs followed by addition of oligomycin/FCCP/antimycin A /rotenone by Cell Mito stress assay based seahorse XF96 flux analyzer; type: functional
[19] = Drug uptake in C57BL/6J mouse liver mitochondria at 5 uM in presence of succinate by UPLC analysis; type: ADME
[20] = system: SH-SY5Y; experiment: Effect on cell death pathway in human SH-SY5Y cells assessed as decrease in necrotic cells at 10 uM incubated for 24 hrs by Annexin V-FITC/PI staining based microscopy; type: functional
[21] = Cytotoxicity against human SH-SY5Y cells assessed as cell viability incubated for 24 hrs; type: toxicity, cell-based; details: read-out: Activity
[22] = system: SH-SY5Y; experiment: Effect on cell death pathway in human SH-SY5Y cells assessed as decrease in late apoptotic cells at 50 uM incubated for 24 hrs by Annexin V-FITC/PI staining based microscopy; type: functional
[23] = system: SH-SY5Y; experiment: Induction of mitochondrial membrane polarization in human SH-SY5Y cells at 10 uM incubated for 24 hrs by JC-1 staining based fluorescence assay; type: functional
[24] = system: SH-SY5Y; experiment: Neuroprotective activity against tBHP-induced human SH-SY5Y cells assessed as increase in cell viability at 50 uM preincubated for 30 mins followed by t-BHP addition at 30 uM and measured after 24 hrs by neutral dye uptake assay relative to control; type: functional; details: time 24.5 hrs
[25] = system: SH-SY5Y; experiment: Effect on cell death pathway in human SH-SY5Y cells assessed as decrease in necrotic cells at 50 uM incubated for 24 hrs by Annexin V-FITC/PI staining based microscopy; type: functional
[26] = Drug uptake in C57BL/6J mouse liver mitochondria at 5 uM in presence of rotenone by UPLC analysis; type: ADME
[27] = system: SH-SY5Y; experiment: Antioxidant activity against human SH-SY5Y cells assessed as increase in basal ECAR at 10 uM incubated for 24 hrs followed by addition of oligomycin/FCCP/antimycin A /rotenone by Cell Mito stress assay based seahorse XF96 flux analyzer; type: functional
[28] = system: SH-SY5Y; experiment: Neuroprotective activity against tBHP-induced human SH-SY5Y cells assessed as increase in cell viability at 50 uM preincubated for 30 mins followed by t-BHP addition at 15 uM and measured after 24 hrs by neutral dye uptake assay relative to control; type: functional; details: time 24.5 hrs
[29] = system: SH-SY5Y; experiment: Induction of mitochondrial membrane polarization in human SH-SY5Y cells at 50 uM incubated for 24 hrs by JC-1 staining based fluorescence assay; type: functional
[30] = system: SH-SY5Y; experiment: Antioxidant activity against human SH-SY5Y cells assessed as increase in basal OCR at 10 uM incubated for 24 hrs followed by addition of oligomycin/FCCP/antimycin A /rotenone by Cell Mito stress assay based seahorse XF96 flux analyzer; type: functional
[31] = system: SH-SY5Y; experiment: Neuroprotective activity against tBHP-induced human SH-SY5Y cells assessed as increase in cell viability at 10 uM preincubated for 30 mins followed by t-BHP addition at 15 uM and measured after 24 hrs by neutral dye uptake assay relative to control; type: functional; details: time 24.5 hrs
[32] = system: SH-SY5Y; experiment: Effect on cell death pathway in human SH-SY5Y cells assessed as decrease in early apoptotic cells at 50 uM incubated for 24 hrs by Annexin V-FITC/PI staining based microscopy; type: functional

With CS(=O)(=O)[O-].O=C(/C=C/c1ccc(O)c(O)c1)NCCCCCCCCCC[n+]1ccc2ccccc2c1 the pKa [1] was 8.45, the Activity [2] was “Active” and the Activity [3] was “Active”. For the same compound, the Activity [4] was “Non-Toxic”, the Activity [5] was “Active” and the Activity [6] was 87.9%. The Activity [7] was “Active”, the Drug uptake [8] was “Active” and the Activity [9] was “inactive”. The Activity [10] was 86.8%, the Activity [11] was “inactive” and the Activity [12] was “Active”. The Activity [13] was “Active”, the Activity [14] was “Active” and the viability at 24 h [15] was at least 85%. The Activity [16] was “Non-Toxic”, the Activity [17] was “Non-Toxic” and the Activity [18] was “Active”. For the same compound, the Drug uptake [19] was ~ 25%, the Activity [20] was “Active” and the viability at 24 h [21] was at least 85%. For the same compound, the Activity [22] was “Active”, the Activity [23] was “inactive” and the Activity [24] was 59.6%. For the same compound, the Activity [25] was “Active”, the Drug uptake [26] was “Not Active” and the Activity [27] was “Active”. The Activity [28] was 89.7%, the Activity [29] was 81.5% and the Activity [30] was “Active”. For the same compound, the Activity [31] was 85.6% and the Activity [32] was “Active”.
